Reference: publication PMC8305768, “Design, Synthesis and Antiparasitic Evaluation of Click Phospholipids” (Molecules, 2021)
Counter-ions that a name gives are not always drawn. Like-named read-outs stand apart in the source and are kept apart here.

Assays:
[1] = test system: L. infantum (MHOM/MA/67/ITMAP-263) intracellular amastigotes; experiment: Activity against L. infantum MHOM/MA/67/ITMAP-263 intramacrophage amastigotes (luciferase, THP-1); assay type: cell-based, Leishmania infantum; conditions: for inhibition at 1 µM / inhibition at 10 µM / IC50: Leishmania infantum; for inhibition at 1 µM / inhibition at 10 µM: THP-1; for inhibition at 1 µM: read-out: Mean % Inhibition ± SD at (1 μM) (converted); for inhibition at 10 µM: read-out: Mean % Inhibition ± SD at 10μM; for IC50: THP-1, 72 h, read-out: L. infantum (MHOM/MA/67/ITMAP-263) Intracellular Amastigotes IC50 ± SD
Experimental: A cloned line of L. infantum (MOM/ MA671TMAP263) promastigotes were maintained in RPMI 1640 medium supplemented with 10% heat-inactivated foetal bovine serum (FBS), 2 mM L-glutamine, 20 mM HEPES and 1% Penn/Strep. Maintenance of promastigotes was done in T-25 flasks at 26 °C by subpassage at […] every 5−6 days. L. infantum axenic amastigotes expressing episomal luciferase were maintained in MAA/20 (axenic amastigote medium) at 37 °C under a 5% CO2 environment with subpassages every 5 days. LUC-positive parasites were selected by addition of geneticin sulphate (G418) to the culture at 60 μg/mL.
The efficacy of compounds against L. infantum intracellular amastigotes was determined according to the literature with slight modifications. Briefly, 1 × 10^6 THP-1 cell/mL were seeded in a 96 well flat bottom plate (100 µL/well) and differentiated into macrophages by addition of 20 ng/mL of phorbol-myristate 13-acetate (PMA, Sigma, Saint Louis, MI, USA) for 18 h, followed by replacement with fresh medium for 24 h. Then these cells were infected with luciferase-expressing L. infantum axenic amastigotes in a macrophage:amastigotes ratio of 1:10 for 4 h at 37 °C, 5% CO2. Non-internalized parasites were washed and compounds were added at different concentrations in a final volume of 100 µL. After 72 h of incubation, the media was substituted by 100 µL of PBS. Then of 25 µL of Glo-lysis buffer from the Steady-Glo Luciferase Assay System (Promega, Madison, WI, USA) was added mixed and incubated for 10 min with agitation at 100 rpm. Finally, 30 µL of the Steady-Glo reagent (Promega, Madison, WI, USA) was then added to the plate and was incubated for 15 min with agitation at 100 rpm and then the content of each well was transferred to white-bottom 96-well plates. Luminescence intensity was read using a Synergy 2 Multi-Mode Reader (Biotek, Winooski, VT, USA). The antileishmanial effect was evaluated by the determination of the IC50 value (concentration required to inhibit growth in 50%) and calculated by the non-linear regression analysis using GraphPad Prism version 8.1.1 for Windows (GraphPad Software, San Diego CA, USA).

[2] = test system: T. cruzi Y strain intracellular amastigotes; experiment: Activity against T. cruzi Y strain intracellular amastigotes (HG39 cell-line, parasite load); assay type: cell-based; conditions: Trypanosoma cruzi, read-out: Parassite Load Reduction (%)
Experimental: T. cruzi epimastigotes (Y strain) were obtained by axenic cultivation in the LIT medium, supplemented with 10% FBS (Cultilab, São Paulo, Brazil). Cultures were maintained at […] for 4–5 days until they reached the log growth phase. New cultures were made every 4 days from the initial inoculum of 2 × 10^6 parasites/mL. T. cruzi trypomastigotes (Y strain) were maintained in culture by the infection of LLC-MK2 (ATTC-CCL7) epithelial cells. This cell line was cultured in […] tissue culture bottles (TPP) in RPMI 1640 medium (Gibco), (Thermo Fischer Scientific, Carlsbad, CA, USA) supplemented with 10% FBS (Gibco) (Thermo Fischer Scientific, Carlsbad, CA, USA). Cultures were maintained at 37 °C under 5% CO2 atmosphere, and RPMI 1640 medium and SFB were exchanged every 48 h. After confluence, the cultures were treated with 1 mL of a mixture of trypsin and versene (Sigma, São Paulo, Brazil) (0.2 and 0.002%, respectively). After 24 h, a subconfluence culture was infected with the trypomastigotes in the approximate proportion of 10:1 parasites/cell. From five to seven days post infection, the trypomastigote stage was obtained from the culture supernatant. Alternatively (Figure 2), T. cruzi strain Y was maintained as previously described.

A549 cells = experiment: Cytotoxicity assay A549 (CellTiter-Glo); assay type: cell-based, human; conditions: compounds 10 μM; miltefosine 10 μM or 1 μM
Excerpt: Early ADMET profiling: The early ADMET profiling of the new derivatives involved a group of assays widely used in drug development as part of the preclinical in vitro toxicity studies. In particular our panel included hERG inhibition, five cytochromes P450 (CYP1A2, CYP2C9, CYP2C19, CYP2D6 and CYP3A4), two cell-lines (A549, epithelial human lung adenocarcinoma, WI38 and foetal lung fibroblasts), Aurora B kinase and mitochondrial toxicity, in addition to the parasite relevant toxicity against THP1 macrophages. The compounds were tested at 10 μΜ, whilst the miltefosine control was tested at 10 μΜ or 1 μM. The toxicity of the new click phospholipids is depicted in Figure 3 in a traffic light format (from red through yellow to green for decreasing ADMET liabilities).
Cytotoxicity assay: A549 cells and WI-38 cells were grown on surface-modified T175 cell culture flasks in Dulbecco’s modified Eagle medium with 10% foetal calf serum (FCS), streptomycin (100 μg/mL) and 100 U/mL penicillin G. At about 80% confluency, cells were washed, trypsinized, resuspended and counted in RPMI-1640 medium before seeding (in triplicate) into white 384-well microtiter plates (20 μL) at 500 cells/well and incubated at 37 °C in the presence of 5% CO2 for 24 h. A total of 20 μL/well of CellTiter-Glo (CTG) reagent (Promega Corp., Madison, WI, USA) was added to each well, and plates were read using an EnVision Multilabel 2103 Reader after a 10-min incubation in the dark. Dose–response assays for compounds made use of 11-point curves. Each test compound (200 nL of 10 mM top concentration in 100% v/v DMSO) was added to cells seeded in polystyrene 384-well cell culture microtiter plates using the Echo 550 Liquid Handler and read after 24 h of incubation at 37 °C in the presence of 5% CO2 using CTG as described above. The compounds/positive control (paclitaxel with final concentration of 10 μM and 1% v/v DMSO) and no compound (final 1% v/v DMSO) were added into the 384-well plates (200 nL/well; 1% v/v DMSO) using the Echo 550 Liquid Handler. The raw luminescence signal of each sample was converted into the percentage of cell growth.

[3] = CC50 THP-1 / IC50 L. infantum MHOM/MA/67/ITMAP-263

SMILES	Mean % Inhibition ± SD at 10μM ([1]; 10 μM, 72 h, N.A. = inactive)	inhibition of growth at 10 µM [2] [%]	% cell growth ± SD at 10 μΜ A549 (A549 cells) [%]	inhibition at 1 µM ([1]; 72 h) [%]	inhibition at 10 µM ([1]; 10 μM, 72 h, N.A. = inactive) [%]	Selectivity Index CC50/IC50 [1]	IC50 [1] [µM]	Selectivity Index CC50/IC50 [1, 3]
C[N+](C)(C)CCOP(=O)([O-])OCCCCCCCCCCCn1cc(CC2CCCC2)nn1 [Compound 28, 11-(4-(cyclopentylmethyl)-1H-1,2,3-triazol-1-yl)undecyl (2-(trimethylammo nio)ethyl) phosphate inner salt]	inactive	58.3	121.51					
CCCCCCCCCCCc1nnc(CCCCCCCCCCOP(=O)([O-])OCC[N+](C)(C)C)o1 [Compound 66, 2-(trimethylammonio)ethyl (10-(5-undecyl-1,3,4-oxadiazol-2-yl)decyl) phosphate inner salt]		69.7	90.83	3.3	94.2 ± 3			
C[N+](C)(C)CCOP(=O)([O-])OCCCCCn1cc(CCCCCCCCN)nn1 [Compound 35, 5-(4-(8-aminooctyl)-1H-1,2,3-triazol-1-yl)pentyl (2-(trimethylammonio)ethyl) phosphate inner salt]		0	100.96					
CCCCCCCCCCCCCCCCOP(=O)([O-])OCC[N+](C)(C)C [Miltefosine, hexadecylphosphocholine, reference compound]		71.9	95.80			4.9	3.2 ± 1.4	
CCCCCCCCCCc1cc(CCCCCCCCCCOP(=O)([O-])OCC[N+](C)(C)C)no1 [Compound 41, 10-(5-decylisoxazol-3-yl)decyl (2-(trimethylammonio)ethyl) phosphate inner salt]		63.3	85.15		93.7 ± 10			
CCCCCc1cn(CCCCCCCCCCCOP(=O)([O-])OCC[N+](C)(C)C)nn1 [Compound 25, 11-(4-pentyl-1H-1,2,3-triazol-1-yl)undecyl (2-(trimethylammonio)ethyl) phosphate inner salt]		66.2	114.88		32 ± 19		34.3 ± 19.4	>3
C[N+](C)(C)CCOP(=O)([O-])OCCCCCCCCCCCn1cc(CC2CCCCC2)nn1 [Compound 29, 11-(4-(cyclohexylmethyl)-1H-1,2,3-triazol-1-yl)undecyl (2-(trimethylammonio)ethyl) phosphate inner salt]		69.9	120.63		43 ± 1			
CCCCCCCc1nnc(CCCCCCCCCCOP(=O)([O-])OCC[N+](C)(C)C)o1 [Compound 65, 10-(5-heptyl-1,3,4-oxadiazol-2-yl)decyl (2-(trimethylammonio)ethyl) phosphate inner salt]		92.2	90.48	4.8	92.9 ± 5			
CCCCCCCCc1noc(CCCCCOP(=O)([O-])OCC[N+](C)(C)C)n1 [Compound 53, 5-(3-octyl-1,2,4-oxadiazol-5-yl)pentyl (2-(trimethylammonio)ethyl) phosphate inner salt]		44.5	87.74	34.6	98.4 ± 1			
CCCCCCCCc1noc(CCCCCCCCCCOP(=O)([O-])OCC[N+](C)(C)C)n1 [Compound 54, 10-(3-octyl-1,2,4-oxadiazol-5-yl)decyl (2-(trimethylammonio)ethyl) phosphate inner salt]		90.5	85.82	67.1	100.4 ± 1		0.8 ± 0.18	13.6
C[N+](C)(C)CCOP(=O)([O-])OCCCCCCCCCCCn1cc(CCCCCCCCNC(=O)OCc2ccccc2)nn1 [Compound 32, 11-(4-(8-(((benzyloxy)carbonyl)amino)octyl)-1H-1,2,3-triazol-1-yl)undecyl (2-(trimethylammonio)ethyl) phosphate inner salt]		0			5 ± 18			
C[N+](C)(C)CCCOP(=O)([O-])OCCCCCCCCCCCn1cc(CC2CCCCC2)nn1 [Compound 33, 11-(4-(cyclohexylmethyl)-1H-1,2,3-triazol-1-yl)undecyl (3-(trimethylammonio)propyl) phosphate inner salt]		0	114.14		12 ± 5			
C[N+](C)(C)CCOP(=O)([O-])OCCCCCCCCCCCn1cc(CCCCCCCCC(=O)O)nn1 [Compound 34, 11-(4-(8-carboxyoctyl)-1H-1,2,3-triazol-1-yl)undecyl (2-(trimethylammonio)ethyl) phosphate inner salt]		0			10 ± 9			
C[N+](C)(C)CCOP(=O)([O-])OCCCCCn1cc(CCCCCCCCNC(=O)OCc2ccccc2)nn1 [Compound 31, 5-(4-(8-(((benzyloxy)carbonyl)amino)octyl)-1H-1,2,3-triazol-1-yl)pentyl (2-(trimethylammonio)ethyl) phosphate inner salt]		0	108.64					
